Laboratory results reported in US6838416B2, “Herbicidal 5-benzyloxymethyl-1,2-isoxazoline derivatives” (Korea Research Institute of Chemical Technology, priority 2000, dated 2005).

Assays:
ECHOR (seed) = assay: Assay for herbicidal activity, paddy pots: ECHOR; format: in vivo, Echinochloa crus-galli var. oryzicola; conditions: three weeks after application, 0 untreated control, 100 complete kill
Excerpt: (§1) To evaluate herbicidal activity against the paddy weeds in the paddy rice (ORYSA: Oryza sativa L.), the herbicidal activity of the compounds of the invention was compared to that of the compound No.109 (compound A) disclosed in U.S. Pat. […] The paddy weeds tested were ECHOR (Echinochloa crus-galli var. oryzicola), SCPJU (Scirpus juncoides ROXB), MOOVA (Monochoria vaginalis […] (Cyperus serotinus ROTTB), and SAGPY (Sagittaria pygmaea MTQ). The vessels employed were plastic pots having an area of 140 cm^2 and filled with a sandy loam soil containing 1.2% organic matter (pH 6).

ORYSA (3-leaf stage) = assay: Assay for herbicidal activity, paddy pots: phytotoxicity to transplanted rice seedlings; format: in vivo, Oryza sativa L.
Excerpt: as §1

CYPSE (tuber) = assay: Assay for herbicidal activity, paddy pots: CYPSE; format: in vivo, Cyperus serotinus ROTTB; conditions: three weeks after application, 0 untreated control, 100 complete kill
Excerpt: as §1

ORYSA (seed) = assay: Assay for herbicidal activity, paddy pots: phytotoxicity to seeded (pregerminated) rice; format: in vivo, Oryza sativa L.
Excerpt: as §1

MOOVA (seed) = assay: Assay for herbicidal activity, paddy pots: MOOVA; format: in vivo, Monochoria vaginalis PRESL; conditions: three weeks after application, 0 untreated control, 100 complete kill
Excerpt: as §1

SCPJU (seed) = assay: Assay for herbicidal activity, paddy pots: SCPJU; format: in vivo, Scirpus juncoides ROXB; conditions: three weeks after application, 0 untreated control, 100 complete kill
Excerpt: as §1

SAGPY (tuber) = assay: Assay for herbicidal activity, paddy pots: SAGPY; format: in vivo, Sagittaria pygmaea MTQ; conditions: three weeks after application, 0 untreated control, 100 complete kill
Excerpt: as §1

[1] = 0.016 kg/ha, three weeks after application, 0 untreated control, 100 complete kill
[2] = 0.063 kg/ha, three weeks after application, 0 untreated control, 100 complete kill
[3] = 0.250 kg/ha, three weeks after application, 0 untreated control, 100 complete kill
[4] = 1.000 kg/ha, three weeks after application, 0 untreated control, 100 complete kill
[5] = 4.000 kg/ha, three weeks after application, 0 untreated control, 100 complete kill

SMILES | ECHOR (seed) herbicidal activity, visual percentage grading (ECHOR (seed); 0.016 kg/ha) [%] | ECHOR (seed) herbicidal activity, visual percentage grading (ECHOR (seed); 0.063 kg/ha) [%] | ECHOR (seed) herbicidal activity, visual percentage grading (ECHOR (seed); 0.250 kg/ha) [%] | ECHOR (seed) herbicidal activity, visual percentage grading (ECHOR (seed); 1.000 kg/ha) [%] | ECHOR (seed) herbicidal activity, visual percentage grading (ECHOR (seed); 4.000 kg/ha) [%] | CYPSE (tuber) herbicidal activity, visual percentage grading (CYPSE (tuber); 0.016 kg/ha) [%] | CYPSE (tuber) herbicidal activity, visual percentage grading (CYPSE (tuber); 0.063 kg/ha) [%] | CYPSE (tuber) herbicidal activity, visual percentage grading (CYPSE (tuber); 0.250 kg/ha) [%] | CYPSE (tuber) herbicidal activity, visual percentage grading (CYPSE (tuber); 1.000 kg/ha) [%] | CYPSE (tuber) herbicidal activity, visual percentage grading (CYPSE (tuber); 4.000 kg/ha) [%] | MOOVA (seed) herbicidal activity, visual percentage grading (MOOVA (seed); 0.016 kg/ha) [%] | MOOVA (seed) herbicidal activity, visual percentage grading (MOOVA (seed); 0.063 kg/ha) [%] | MOOVA (seed) herbicidal activity, visual percentage grading (MOOVA (seed); 0.250 kg/ha) [%] | MOOVA (seed) herbicidal activity, visual percentage grading (MOOVA (seed); 1.000 kg/ha) [%] | MOOVA (seed) herbicidal activity, visual percentage grading (MOOVA (seed); 4.000 kg/ha) [%] | SCPJU (seed) herbicidal activity, visual percentage grading (SCPJU (seed); 0.016 kg/ha) [%] | SCPJU (seed) herbicidal activity, visual percentage grading (SCPJU (seed); 0.063 kg/ha) [%] | SCPJU (seed) herbicidal activity, visual percentage grading (SCPJU (seed); 0.250 kg/ha) [%] | SCPJU (seed) herbicidal activity, visual percentage grading (SCPJU (seed); 1.000 kg/ha) [%] | SCPJU (seed) herbicidal activity, visual percentage grading (SCPJU (seed); 4.000 kg/ha) [%] | also measured
Cc1ccsc1C1=NOC(C)(COCc2ccccc2F)C1 (centres unmarked) [EXAMPLE 6, 5-(2-fluorobenzyl)oxymethyl-5-methyl-3-(4-methylthiophene-5-yl)-1,2-isoxazoline] | 20 | 100 | 100 | 100 | 100 | 100 | 100 | 100 | 100 | 100 | 0 | 70 | 80 | 80 | 100 | 20 | 80 | 80 | 100 | 100 | ORYSA (3-leaf stage) phytotoxicity, visual percentage grading (ORYSA (3-leaf stage); [1]): 0%; ORYSA (3-leaf stage) phytotoxicity, visual percentage grading (ORYSA (3-leaf stage); [2]): 20%; ORYSA (3-leaf stage) phytotoxicity, visual percentage grading (ORYSA (3-leaf stage); [3]): 20%; ORYSA (3-leaf stage) phytotoxicity, visual percentage grading (ORYSA (3-leaf stage); [4]): 30%; ORYSA (3-leaf stage) phytotoxicity, visual percentage grading (ORYSA (3-leaf stage); [5]): 30%; ORYSA (seed) phytotoxicity, visual percentage grading (ORYSA (seed); [1]): 0%; ORYSA (seed) phytotoxicity, visual percentage grading (ORYSA (seed); [2]): 40%; ORYSA (seed) phytotoxicity, visual percentage grading (ORYSA (seed); [3]): 100%; ORYSA (seed) phytotoxicity, visual percentage grading (ORYSA (seed); [4]): 100%; ORYSA (seed) phytotoxicity, visual percentage grading (ORYSA (seed); [5]): 100%; SAGPY (tuber) herbicidal activity, visual percentage grading (SAGPY (tuber); 0.016 kg/ha): 0%; SAGPY (tuber) herbicidal activity, visual percentage grading (SAGPY (tuber); 0.063 kg/ha): 0%; SAGPY (tuber) herbicidal activity, visual percentage grading (SAGPY (tuber); 0.250 kg/ha): 0%; SAGPY (tuber) herbicidal activity, visual percentage grading (SAGPY (tuber); 1.000 kg/ha): 30%; SAGPY (tuber) herbicidal activity, visual percentage grading (SAGPY (tuber); 4.000 kg/ha): 30%
CC1(COCc2c(F)cccc2F)CC(c2ccc(Br)s2)=NO1 (centres unmarked) [EXAMPLE 11, 5-(2,6-difluorobenzyl)oxymethyl-5-methyl-3-(2-bromothiophene-5-yl)-1,2-isoxazoline] | 20 | 70 | 100 | 100 | 100 | 0 | 0 | 40 | 100 | 100 | 30 | 50 | 90 | 100 | 100 | 0 | 0 | 20 | 30 | 80 | ORYSA (3-leaf stage) phytotoxicity, visual percentage grading (ORYSA (3-leaf stage); in vivo): 0%; SAGPY (tuber) herbicidal activity, visual percentage grading (SAGPY (tuber); 0.016 kg/ha): 0%; SAGPY (tuber) herbicidal activity, visual percentage grading (SAGPY (tuber); 0.063 kg/ha): 0%; SAGPY (tuber) herbicidal activity, visual percentage grading (SAGPY (tuber); 0.250 kg/ha): 0%; SAGPY (tuber) herbicidal activity, visual percentage grading (SAGPY (tuber); 1.000 kg/ha): 30%; SAGPY (tuber) herbicidal activity, visual percentage grading (SAGPY (tuber); 4.000 kg/ha): 50%
CC1(COCc2cccc(F)c2)CC(c2sccc2Br)=NO1 (centres unmarked) [EXAMPLE 18, 5-(3-fluorobenzyl)oxymethyl-5-methyl-3-(4-bromothiophene-5-yl)-1,2-isoxazoline] | 0 | 60 | 100 | 100 | 100 | 0 | 40 | 70 | 100 | 100 | 0 | 100 | 100 | 100 | 100 | 0 | 10 | 100 | 100 | 100 | ORYSA (3-leaf stage) phytotoxicity, visual percentage grading (ORYSA (3-leaf stage); in vivo): 0%; ORYSA (seed) phytotoxicity, visual percentage grading (ORYSA (seed); in vivo): 100%; SAGPY (tuber) herbicidal activity, visual percentage grading (SAGPY (tuber); 0.016 kg/ha): 0%; SAGPY (tuber) herbicidal activity, visual percentage grading (SAGPY (tuber); 0.063 kg/ha): 0%; SAGPY (tuber) herbicidal activity, visual percentage grading (SAGPY (tuber); 0.250 kg/ha): 0%; SAGPY (tuber) herbicidal activity, visual percentage grading (SAGPY (tuber); 1.000 kg/ha): 0%; SAGPY (tuber) herbicidal activity, visual percentage grading (SAGPY (tuber); 4.000 kg/ha): 20%
Cc1cc(C)c(C2=NOC(C)(COCc3c(F)cccc3F)C2)s1 (centres unmarked) [EXAMPLE 15, 5-(2,6-difluorobenzyl)oxymethyl-5-methyl-3-(2,4-dimethylthiophene-5-yl)-1,2-isoxazoline] | 40 | 100 | 100 | 100 | 100 | 0 | 0 | 70 | 100 | 100 | 90 | 100 | 100 | 100 | 100 | 20 | 50 | 100 | 100 | 100 | SAGPY (tuber) herbicidal activity, visual percentage grading (SAGPY (tuber); 0.016 kg/ha): 0%; SAGPY (tuber) herbicidal activity, visual percentage grading (SAGPY (tuber); 0.063 kg/ha): 0%; SAGPY (tuber) herbicidal activity, visual percentage grading (SAGPY (tuber); 0.250 kg/ha): 20%; SAGPY (tuber) herbicidal activity, visual percentage grading (SAGPY (tuber); 1.000 kg/ha): 40%; SAGPY (tuber) herbicidal activity, visual percentage grading (SAGPY (tuber); 4.000 kg/ha): 70%
